The text below walks through data of patent EP4702986A1, “POLYPEPTIDE AND USE THEREOF” (Biocells (Beijing) Biotech Co., Ltd., priority 2023, dated 2024).

One may read the half-life as how long it takes for the measured level to halve. Read a high half-life as slow decline.

For data set [1], the system named is male SD rats. The conditions noted are these: one animal per row, observed 48 hours. As to the method:
In an experiment about acute toxicity of subcutaneous administration, male SD rats weighing 200-230 g were dosed in a range between 60 µg/Kg and 960 µg/Kg. Observation was made for 48 hours after subcutaneous administration. Toxic response and mortality of the rats were preliminarily observed, and time of death and doses without mortality were recorded. The level of acute toxicity of the polypeptides was preliminarily determined based on the doses without mortality.

Data set [2] in a line: Determination of half-lives of polypeptides (plasma, LC-MS). The conditions noted are these: for half-life: C57 BL/6, mouse, plasma, iv; for AUClast 0-30 min: C57 BL/6 mice, dosage per compound 0.48, 0.96 or 1 mpk; for AUClast 0-30 min / T1/2: i.v.; for T1/2: Table 1, mice.
Another data set has as its target T1, human ETA receptor (Homo sapiens, UniProt P25101).
T1 construct: expressed in transfected cells; host or cells: 293T-17 cells, transient transfection
T1 sequence (P25101 21-427): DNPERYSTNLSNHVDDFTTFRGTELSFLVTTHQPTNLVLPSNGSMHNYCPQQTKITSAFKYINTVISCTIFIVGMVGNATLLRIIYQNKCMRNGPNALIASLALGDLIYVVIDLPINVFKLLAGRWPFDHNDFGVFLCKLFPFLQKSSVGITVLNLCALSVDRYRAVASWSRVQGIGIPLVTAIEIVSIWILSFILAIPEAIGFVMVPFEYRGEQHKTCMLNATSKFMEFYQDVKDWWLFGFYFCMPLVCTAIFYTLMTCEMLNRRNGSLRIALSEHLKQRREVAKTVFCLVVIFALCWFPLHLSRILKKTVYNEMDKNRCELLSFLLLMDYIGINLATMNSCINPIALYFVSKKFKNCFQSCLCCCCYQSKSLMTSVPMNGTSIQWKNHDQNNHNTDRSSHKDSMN
The data set can be described thus: Selectivity of polypeptides on human ETA receptor (IP-One Gq kit, % of positive control ET1). The conditions noted are these: read-out: hETAR agonist activity, percentage of activity relative to ET1. The format is cell-based. The protocol:
293T-17 cells were seeded at a density of 650,000 cells per well in a 6-well plate and cultured overnight in an incubator at 37°C and 5% CO2. Afterward, the cells were transfected with an expression vector, PCDNA3.1-hETA which contained a human ETA receptor gene, at a plasmid concentration of 2.5 µg per well. The cells were further cultured for 48 hours, and green fluorescence expression was observed under a fluorescence microscope. The cells were then digested with trypsin and counted. The activity of compounds on the human ETA receptor was determined with the IP-One Gq kit from Cisbio Bioassays. The cells were suspended in Stim Buffer provided in the kit and the cell suspension was added to a 96-well detection plate at 7 µL cell suspension (containing 30,000 cells) per well. The polypeptides to be screened for activity (prepared according to the Preparation Example of the invention) and polypeptide human endothelin ET1 as positive control were dissolved in Stim B to be at a concentration of 2×, and 7 µL was added to the test cells, while 7 µL of PBS solution was added to the cells in the negative control wells. Human endothelin ET1 (ET1: […] (C1-C15,C3-C11)) set forth in SEQ ID No. 85 was used as the positive control polypeptide. The plate was sealed and incubated at 37°C for 1 h in a cell culture incubator. Detection wells, positive control wells, and PBS control wells were each added with 3 µL of IP1 d2 working solution and 3 µL of IP1 Tb cryptotate Antibody working solution. The plate was sealed and incubated in the dark at room temperature (25°C±5°C) for 1 h. The plate seal was removed, and the […] at 665 nm and 620 nm was measured with an ID5 microplate reader. The ratio of the acceptor emission signal to the donor emission signal, i.e., the value of (signal at 665 nm/signal at 620 nm)×10^4, was calculated for each well. With F3 representing the average value of values of signal at 665 nm/signal at 620 nm determined for the test sample at a specific concentration, F5 representing the average value of values of signal at 665 nm/signal at 620 nm determined for the positive control human endothelin ET1 at the same concentration, and T3 representing the average value of values of signal at 665 nm/signal at 620 nm determined for the PBS negative control, the percentage of activity of the test polypeptide sample relative to the positive control sample ET1 = (F3-T3)×100/(F5-T3) (see Table 6). hETA sequence (NCBI accession number L06622.1).

Data set [3] has as its system male SD rats. In words: in vivo. The conditions noted are these: intravenous (tail vein) 240 µg/Kg; one animal per row; observed 24 hours. As to the method: In an experiment about acute toxicity of intravenous administration, male SD rats weighing 200-230 g were dosed in a range between 480 µg/Kg and 30 µg/Kg via tail vein injection in a descending order of dosage. […] Toxic response and mortality of the rats were preliminarily observed, and time of death and doses without mortality of the rats were recorded. The level of acute toxicity of the polypeptides was preliminarily determined based on the doses without mortality.

“Also recorded” adds a separate entry of the source. Where two headings read alike, the source gives them in different places. Numbered stars: 1 amine (or outer) side, 2 acyl side, 3 side chain; on linkers, the order of the positions; unused ones are H or OH. Bridge positions count the residues as written; N and C are the ends. Side chains are listed from the residue outwards. Peptide text beside a SMILES is read from it. * marks the point of attachment. C18 diacid = O=C(O)CCCCCCCCCCCCCCCCC(=O)*; γGlu = O=C(O)[C@H](CCC(=O)[*:2])N[*:1]; Ethylenediamine = C(CN[*:2])N[*:1]; Palmitoyl = CCCCCCCCCCCCCCCC(=O)*; Fumaroyl = O=C(O)/C=C/C(=O)*; Suc = O=C(CCC(=O)[*:2])[*:1]; Lauroyl = CCCCCCCCCCCC(=O)*; AEEA = NCCOCCOCC(=O)O

In the case of `CCCCCCCCCCCC(=O)N[C@@H](CCC(=O)O)C(=O)NCCOCCOCC(=O)NCCCC[C@H](NC(=O)[C@H](Cc1c[nH]cn1)NC(=O)[C@H](C)NC(=O)[C@H](Cc1ccccc1)NC(=O)[C@H](Cc1ccc(O)cc1)NC(=O)[C@@H](NC(=O)[C@H](C)NC(=O)[C@H](CCC(=O)O)NC(=O)[C@H](CCC(=O)O)NC(=O)[C@H](CC(=O)O)NC(=O)/C=C/C(=O)O)C(C)C)C(=O)N[C@@H](CC(=O)O)C(=O)N[C@H](C(=O)N[C@H](C(=O)N[C@@H](Cc1c[nH]c2ccccc12)C(=O)O)[C@@H](C)CC)C(C)C` [BX238-Na] (Fumaroyl-DEEAVYFAHK([AEEA-Glu-Lauroyl])DVIW-OH), the “Observations of Animal Status” value in the data set on male SD rats [1] (subcutaneous 240 µg/Kg) is “No obvious abnormal reaction observed within 48 hours”; in the data set on male SD rats [1] (subcutaneous 360 µg/Kg), “No obvious abnormal reaction observed within 48 hours”; in the data set on male SD rats [1] (subcutaneous 480 µg/Kg) it was “Developed rapid breathing at 50 minutes after administration, showed no willingness to move, recovered 2 hours after administration; also recorded: Developed rapid breathing at 21 minutes after administration, died at 26 minutes after administration; also recorded: Developed rapid breathing at 10 minutes after administration, died at 47 minutes after administration; also recorded: Developed rapid breathing at 45 minutes after administration, showed no willingness to move, recovered 2 hours after administration; also recorded: Developed rapid breathing at 20 minutes after administration, died at 55 minutes after administration”.
Regarding `CCCCCCCCCCCCCCCC(=O)NCCOCCOCC(=O)NCCOCCOCC(=O)N[C@@H](CCC(=O)NCCCC[C@H](NC(=O)[C@H](Cc1c[nH]cn1)NC(=O)[C@H](C)NC(=O)[C@H](Cc1ccccc1)NC(=O)[C@H](Cc1ccc(O)cc1)NC(=O)[C@@H](NC(=O)[C@H](C)NC(=O)[C@H](CCC(=O)O)NC(=O)[C@H](CCC(=O)O)NC(=O)[C@H](CC(=O)O)NC(=O)/C=C/C(=O)O)C(C)C)C(=O)N[C@@H](CC(=O)O)C(=O)N[C@H](C(=O)N[C@H](C(=O)N[C@@H](Cc1c[nH]c2ccccc12)C(=O)O)[C@@H](C)CC)[C@@H](C)CC)C(=O)O` [BX-70] (Fumaroyl-DEEAVYFAHK([γGlu-AEEA-AEEA-Palmitoyl])DIIW-OH), in data set [2], the half-life worked out at 41 min, the “AUClast 0-30 min” value is 1701 ng·h/mL and the T1/2 result is on record as “T1/2=41min;”. On human ETA receptor, the activation at 10 µM was -15.8% and the activation at 100 µM was 13.5%.
The like results for `CCCCCCCCCCCC(=O)NCCOCCOCC(=O)NCCOCCOCC(=O)N[C@@H](CCC(=O)NCCCC[C@H](NC(=O)[C@H](Cc1c[nH]cn1)NC(=O)[C@H](C)NC(=O)[C@H](Cc1ccccc1)NC(=O)[C@H](Cc1ccc(O)cc1)NC(=O)[C@@H](NC(=O)[C@H](C)NC(=O)[C@H](CCC(=O)O)NC(=O)[C@H](CCC(=O)O)NC(=O)[C@H](CC(=O)O)NC(=O)/C=C/C(=O)O)C(C)C)C(=O)N[C@@H](CC(=O)O)C(=O)N[C@H](C(=O)N[C@H](C(=O)N[C@@H](Cc1c[nH]c2ccccc12)C(=O)O)[C@@H](C)CC)[C@@H](C)CC)C(=O)O` [BX-71] (Fumaroyl-DEEAVYFAHK([γGlu-AEEA-AEEA-Lauroyl])DIIW-OH) were, in that order, 23 min, 2049 ng·h/mL, “T1/2=23min;”, -9.66% and -9.49%.
Consider `CC[C@H](C)[C@H](NC(=O)[C@@H](NC(=O)[C@H](CC(=O)O)NC(=O)[C@H](CC(C)C)NC(=O)[C@H](Cc1c[nH]cn1)NC(=O)[C@H](C)NC(=O)[C@H](Cc1ccccc1)NC(=O)[C@H](Cc1ccc(O)cc1)NC(=O)[C@@H]1CCCCNC(=O)CC[C@H](NC(=O)[C@H](CC(=O)O)NC(=O)CCC(=O)O)C(=O)N[C@@H](CCC(=O)O)C(=O)N[C@@H](C)C(=O)N1)C(C)C)C(=O)N[C@@H](Cc1c[nH]c2ccccc12)C(=O)O` [BX-76] (Suc-DEEAKYFAHLDVIW-OH; lactam 2-5), for which, in data set [2], the half-life amounted to 3.6 min and the “AUClast 0-30 min” value turned out to be 250 ng·h/mL. For the same molecule, at human ETA receptor, the activation at 10 µM is -20.9% and the activation at 100 µM is -7.56%.
For `CC[C@H](C)[C@H](NC(=O)[C@H](CC(=O)O)NC(=O)[C@H](CCCCNC(=O)CC[C@H](NC(=O)COCCOCCNC(=O)COCCOCCNC(=O)CCCCCCCCCCCCCCCCC(=O)O)C(=O)O)NC(=O)[C@H](Cc1c[nH]cn1)NC(=O)[C@H](C)NC(=O)[C@H](Cc1ccccc1)NC(=O)[C@H](Cc1ccc(O)cc1)NC(=O)[C@@H](NC(=O)[C@H](C)NC(=O)[C@H](CCC(=O)O)NC(=O)[C@H](CCC(=O)O)NC(=O)[C@H](CC(=O)O)NC(=O)/C=C/C(=O)O)C(C)C)C(=O)N[C@H](C(=O)N[C@@H](Cc1c[nH]c2ccccc12)C(N)=O)[C@@H](C)CC` [BX-86] (Fumaroyl-DEEAVYFAHK([γGlu-AEEA-AEEA-C18 diacid])DIIW-NH2), in that order: 63 min, 1146 ng·h/mL, 18.3% and 10.4%.
In the case of `CC[C@H](C)[C@H](NC(=O)[C@H](CC(=O)O)NC(=O)[C@H](CC(C)C)NC(=O)[C@H](Cc1c[nH]cn1)NC(=O)[C@H](C)NC(=O)[C@H](Cc1ccccc1)NC(=O)[C@H](Cc1ccc(O)cc1)NC(=O)[C@@H](NC(=O)[C@H](C)NC(=O)[C@H](CCC(=O)O)NC(=O)[C@H](CCC(=O)O)NC(=O)[C@H](CC(=O)O)NC(=O)CCC(=O)NCCNC(=O)COCCOCCNC(=O)COCCOCCNC(=O)CC[C@H](NC(=O)CCCCCCCCCCCCCCCCC(=O)O)C(=O)O)C(C)C)C(=O)N[C@H](C(=O)N[C@@H](Cc1c[nH]c2ccccc12)C(=O)O)[C@@H](C)CC` [BX-256] ({C18 diacid-γGlu-AEEA-AEEA-Ethylenediamine-Suc}-DEEAVYFAHLDIIW-OH), in the data set on male SD rats [3], the “Observations of Animal Status” value was “Developed rapid breathing and limbs turned pale purple, and developed convulsions at 16 minutes after administration; died at 27 minutes after administration; also recorded: Developed rapid breathing, the limbs and face turned purple, and had weak limbs at 15 minutes after administration; died at 21 minutes after administration”.
